Laboratory results published in the supplement of paper PMC8671470.

How the values were obtained:
Conditions in all cases: 72 h
BV-173 [1] = system: BV-173
In short: (§1)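 Seeded in RPMI 1640 at densities within the linear growth range, fifteen myeloid leukaemia cell lines were dispensed into 384-well plates with acoustically pre-printed compounds spanning five tenfold doses from 1 to 10,000 nM, in duplicate. The plates were kept for 72 h at 37 °C in 5% CO2 before luminescent ATP viability was measured and normalised to vehicle and to a positive control at 10 µM. Curves were fitted with a four-parameter log-logistic model. The IC50 was taken from those curves.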

HEL = system: HEL
In short: as §1

HL-60 [2] = system: HL-60
In short: as §1

K-562 [3] = system: K-562
In short: as §1

KCL-22 [4] = system: KCL-22
In short: as §1

KG-1 [5] = system: KG-1
In short: as §1

KU-812 [6] = system: KU-812
In short: as §1

LAMA-84 [7] = system: LAMA-84
In short: as §1

ML-2 [8] = system: ML-2
In short: as §1

MOLM-13 [9] = system: MOLM-13
In short: as §1

MV4-11 [10] = system: MV4-11
In short: as §1

Mono-Mac-6 = system: Mono-Mac-6
In short: as §1

NOMO-1 [11] = system: NOMO-1
In short: as §1

SHI-1 = system: SHI-1
In short: as §1

THP-1 [12] = system: THP-1
In short: as §1

HL-60 [13] = test: cell viability (% survival relative to DMSO control); higher = less cytotoxic
In short: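 In 384-well plates, the full library was rescreened in duplicate on HL-60 cells in RPMI 1640 with 10% FBS, at 1–10,000 nM in five tenfold concentrations, for 72 h at 37 °C, 5% CO2. Each run also held DMSO or 100 nM of one of three metabolic inhibitors. Viability was measured by CellTiter-Glo and normalised to DMSO wells and to wells with proteasome inhibitor, present at 10 μM. Any area under the curve comes from four-parameter log-logistic fitting with drc and PharmacoGx.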

BV-173 [14] = test: cell viability (% survival relative to DMSO control, bortezomib = 0%); higher = less cytotoxic
In short: (§2)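 Fifteen myeloid leukaemia cell lines (10 AML, 5 CML) were seeded at a density titrated to the linear growth range into 384-well plates pre-printed with compounds at 1, 10, 100, 1000 or 10000 nM in duplicate. Plates were incubated for 72 h at 37 °C with 5% CO2. Viability was then read by CellTiter-Glo luminescence. Each value is percent survival averaged over the duplicates, with vehicle set to 100% and a 10 µM positive control to 0%.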

HL-60 [15] = test: as above
In short: as §2

K-562 [16] = test: as above
In short: as §2

KCL-22 [17] = test: as above
In short: as §2

KG-1 [18] = test: as above
In short: as §2

KU-812 [19] = test: as above
In short: as §2

LAMA-84 [20] = test: as above
In short: as §2

ML-2 [21] = test: as above
In short: as §2

MOLM-13 [22] = test: as above
In short: as §2

MV4-11 [23] = test: as above
In short: as §2

NOMO-1 [24] = test: as above
In short: as §2

THP-1 [25] = test: as above
In short: as §2

O=C(O)C[C@@]1(O)C[C@@H](CCCCCCc2ccc(Cl)cc2Cl)OC1=O
Conditions	IC50 (cell viability) [µM]
BV-173 [1]	> 10
HEL	> 10
HL-60 [2]	> 10
K-562 [3]	> 10
KCL-22 [4]	> 10
KG-1 [5]	> 10
KU-812 [6]	> 10
LAMA-84 [7]	> 10
ML-2 [8]	> 10
MOLM-13 [9]	> 10
MV4-11 [10]	> 10
Mono-Mac-6	> 10
NOMO-1 [11]	> 10
SHI-1	> 10
THP-1 [12]	> 10

cell viability [%], HL-60 [13]
Conditions	0.001 µM	0.01 µM	0.1 µM	1 µM	10 µM
co-treatment: AZD3965 100 nM	104	104	100	98.7	95.4
co-treatment: DMSO vehicle	102	105	97.05	103	99.13
co-treatment: GSK2194069 100 nM	108	108	95.77	99.5	93.44
co-treatment: pictilisib 100 nM	107	109.5	92.03	103	99.5

cell viability [%]
Conditions	1 nM	10 nM	100 nM	1000 nM	10000 nM
BV-173 [14]	102	101	97.8	96.3	96.4
HL-60 [15]	97.1	123	100	89.3	99.8
K-562 [16]	103	93.6	105	102	96.8
KCL-22 [17]	97.1	107	88.4	97.5	112
KG-1 [18]	100	110	99.4	112	97.9
KU-812 [19]	92.2	99.9	96	98.7	92.4
LAMA-84 [20]	99.6	99.8	92.7	97.3	96.7
ML-2 [21]	103	116	106	105	106
MOLM-13 [22]	102	103	110	103	110
MV4-11 [23]	95.3	86.1	90.5	102	98.4
NOMO-1 [24]	101	103	97.4	98.8	99.5
THP-1 [25]	103	97	103	99.7	90.3

O=C(NCCCCCCNC(=O)ONC1=CCCCC1)ONC1=CCCCC1
Conditions	IC50 (cell viability) [µM]
BV-173 [1]	> 10
HEL	> 10
HL-60 [2]	> 10
K-562 [3]	> 10
KCL-22 [4]	> 10
KG-1 [5]	> 10
KU-812 [6]	> 10
LAMA-84 [7]	> 10
ML-2 [8]	> 10
MOLM-13 [9]	> 10
MV4-11 [10]	> 10
Mono-Mac-6	> 10
NOMO-1 [11]	> 10
SHI-1	> 10
THP-1 [12]	> 10

cell viability [%], HL-60 [13]
Conditions	0.001 µM	0.01 µM	0.1 µM	1 µM	10 µM
co-treatment: AZD3965 100 nM	99.5	99	99.3	100.9	98.9
co-treatment: DMSO vehicle	97	99.2	96.8	102	97.3
co-treatment: GSK2194069 100 nM	99.1	101	70.1	87.3	105
co-treatment: pictilisib 100 nM	105	102	104	95	86.2

cell viability [%]
Conditions	1 nM	10 nM	100 nM	1000 nM	10000 nM
BV-173 [14]	89.4	107	114	110	95.2
HL-60 [15]	106	107	124	111	93.8
K-562 [16]	97.9	120	116	101	89.5
KCL-22 [17]	106	100	115	102	94.6
KG-1 [18]	90.4	122	114	92.8	90.4
KU-812 [19]	104	110	113	101	92.4
LAMA-84 [20]	104	103	112	101	103
ML-2 [21]	94.8	107	108	107	99.1
MOLM-13 [22]	118	97	109	98.7	86
MV4-11 [23]	91.1	104	106	100	96.3
NOMO-1 [24]	98.9	117	112	112	102
THP-1 [25]	89.4	114	109	97.4	100

O=C(C1CC1)N1CC[C@@H](C=C2NNC(=O)N2c2ccc(-c3ccc4occc4c3)cc2)C1
Conditions	IC50 (cell viability) [µM]
BV-173 [1]	> 10
HEL	> 10
HL-60 [2]	0.0437
K-562 [3]	> 10
KCL-22 [4]	9.06
KG-1 [5]	> 10
KU-812 [6]	> 10
LAMA-84 [7]	> 10
ML-2 [8]	> 10
MOLM-13 [9]	1.47
MV4-11 [10]	> 10
Mono-Mac-6	> 10
NOMO-1 [11]	> 10
SHI-1	> 10
THP-1 [12]	> 10

cell viability [%], HL-60 [13]
Conditions	0.001 µM	0.01 µM	0.1 µM	1 µM	10 µM
co-treatment: AZD3965 100 nM	101	104	81.6	76.9	68.9
co-treatment: DMSO vehicle	101	105	95.1	92	85.8
co-treatment: GSK2194069 100 nM	96.3	103.6	92	86.9	82.4
co-treatment: pictilisib 100 nM	97.7	104	92.53	76.6	73.1

cell viability [%]
Conditions	1 nM	10 nM	100 nM	1000 nM	10000 nM
BV-173 [14]	97.1	86.3	82.4	79	63.7
HL-60 [15]	101	66.7	48.4	35	38.1
K-562 [16]	95.4	78.1	73	79	54.4
KCL-22 [17]	99.1	101	94.9	86.2	58.3
KG-1 [18]	95.4	104	112	90.3	82.4
KU-812 [19]	99.8	94.8	99.9	102	67.1
LAMA-84 [20]	98.5	97.5	88.7	82.8	72.4
ML-2 [21]	101	98.4	107	97.8	88.4
MOLM-13 [22]	101	77.4	75.1	53.2	44.7
MV4-11 [23]	88.1	95.7	81	84	59.9
NOMO-1 [24]	98.1	98.6	107	99.4	89.9
THP-1 [25]	98.7	93.3	104	103	101
